In patent publication US20260085058A1, “DEGRADERS OF SON OF SEVENLESS HOMOLOG 1” (H. LEE MOFFITT CANCER CENTER AND RESEARCH INSTITUTE, INC., priority 2022, published 2026):

Biological target: T1, SOS1 (Homo sapiens, UniProt Q07889)
T1 sequence (Q07889 1-1333): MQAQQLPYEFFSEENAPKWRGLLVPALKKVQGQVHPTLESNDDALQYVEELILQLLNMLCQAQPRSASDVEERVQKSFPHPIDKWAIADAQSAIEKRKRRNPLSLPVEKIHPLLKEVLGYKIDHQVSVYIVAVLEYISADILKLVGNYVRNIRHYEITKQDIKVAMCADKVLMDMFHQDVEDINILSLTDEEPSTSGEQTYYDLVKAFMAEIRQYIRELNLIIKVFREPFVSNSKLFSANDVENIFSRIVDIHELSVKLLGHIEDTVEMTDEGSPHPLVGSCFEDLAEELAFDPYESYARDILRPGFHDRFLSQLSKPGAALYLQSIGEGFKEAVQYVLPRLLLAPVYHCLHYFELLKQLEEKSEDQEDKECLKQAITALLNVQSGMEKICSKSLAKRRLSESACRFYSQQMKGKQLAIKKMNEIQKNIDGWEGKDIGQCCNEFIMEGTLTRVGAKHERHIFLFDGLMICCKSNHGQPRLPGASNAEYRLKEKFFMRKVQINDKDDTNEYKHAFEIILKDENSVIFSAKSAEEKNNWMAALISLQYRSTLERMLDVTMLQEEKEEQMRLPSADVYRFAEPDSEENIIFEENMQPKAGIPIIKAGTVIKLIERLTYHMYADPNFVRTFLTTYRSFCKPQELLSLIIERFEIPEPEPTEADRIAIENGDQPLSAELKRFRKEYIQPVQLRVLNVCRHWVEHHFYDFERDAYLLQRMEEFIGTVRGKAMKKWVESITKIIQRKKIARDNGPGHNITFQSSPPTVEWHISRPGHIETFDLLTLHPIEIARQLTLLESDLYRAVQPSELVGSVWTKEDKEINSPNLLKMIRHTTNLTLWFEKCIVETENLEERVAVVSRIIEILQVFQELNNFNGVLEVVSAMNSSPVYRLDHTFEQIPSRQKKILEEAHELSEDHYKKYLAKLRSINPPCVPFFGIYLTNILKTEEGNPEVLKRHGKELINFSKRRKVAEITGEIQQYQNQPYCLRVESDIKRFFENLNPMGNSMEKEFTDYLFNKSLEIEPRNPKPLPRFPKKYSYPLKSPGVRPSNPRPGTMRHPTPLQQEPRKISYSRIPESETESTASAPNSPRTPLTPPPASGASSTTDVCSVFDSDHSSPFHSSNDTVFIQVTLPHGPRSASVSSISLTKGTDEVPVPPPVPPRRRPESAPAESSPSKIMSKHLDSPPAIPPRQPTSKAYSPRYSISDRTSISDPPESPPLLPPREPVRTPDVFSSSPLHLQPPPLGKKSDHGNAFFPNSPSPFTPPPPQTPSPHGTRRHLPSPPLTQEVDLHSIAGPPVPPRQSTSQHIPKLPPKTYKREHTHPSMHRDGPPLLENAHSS
Assay: SOS1 degradation by immunoblot in colorectal cancer cell lines
Type: cell-based
Design: endogenous in cells; host or cells: SW620, HCT116, C2BB, SW1417
Conditions: SW620 cells, 1 μM, different time points
Description: SW620, HCT116, C2BB, and SW1417 were purchased from the American Type Culture Collection. […] They were incubated under a 5% (v/v) CO2 atmosphere at 37° C.
Cells were plated in a 100 mm dish for incubation overnight before harvest for immunoblot. For drug treatment, cell confluency was checked prior to proceeding with the treatment. […] Approximately 40 μg protein samples were loaded into each well and separated by SDS-PAGE gel. After protein transfer onto nitrocellulose membranes, 5% skim milk in TBST was used to block the membranes for 1 hour at room temperature prior to incubation with primary antibodies overnight at 4° C. At the completion, a horseradish peroxidase-conjugated secondary antibody was applied at room temperature for 1 hour. The bands were visualized using Western Lightning Plus-ECL (PerkinElmer).

## COc1cc2c(N[C@H](C)c3cc(N)cc(C(F)(F)F)c3)nc(C)nc2cc1OCc1cccc2c1C(=O)N(C1CCC(=O)NC1=O)C2=O (stereo partly drawn) [P2, 4-(((4-(((R)-1-(3-amino-S-(trifluoromethyl)phenyl)ethyl)amino)-6-methoxy-2-methylquinazolin-7-yl)oxy)methyl)-2-(2,6-dioxopiperidin-3-yl)isoindoline-1,3-dione]
  Time-dependent SOS1 degradation: not observed
